What was measured:
[1] = ref Ferreiro et al. 2002; cited from earlier work
[2] = test system: Salmonella typhimurium; conditions: ref Rosenkranz Jr et al. 1976; cited from earlier work
[3] = test system: Bloodstream trypomastigotes of T. cruzi (Y strain); test: In vitro trypanocidal assay; type: cell-based; conditions: Trypanosoma cruzi, 24 h, read-out: IC50/24 h
[4] = test system: DNA damage in human whole blood cells; test: In vitro alkaline single cell gel electrophoresis; type: cell-based; conditions: positive control, 160 µM

In the case of `Cc1ncc([N+](=O)[O-])n1CC(O)CCl` (centres unmarked) [Compound 4, ornidazole], the “Mutagenicity (in words)” value [1] is listed as “known to be a mutagenic agent”.
For `O=C(Cn1ccnc1[N+](=O)[O-])NCc1ccccc1` [Compound 8, benznidazole], the Ames test result [2] is given as “positive” and the IC50 [3] is given as 9.7 ± 2.4 µM.
With `COS(C)(=O)=O` [MMS, Methyl methane-sulfonate] the “TAU value (total DNA damage score)” value [4] was 454.3 ± 9.2 TAU and the “TAU value (total DNA damage score)” value ([4]; listed as methyl methane-sulfonate) was “MI: mutagenicity inde; NA: not applicable; TAU: total arbitrary units for the positive control, methyl methane-sulfonate value was 454.3 ± 9.2”.
